Experimental data: patent US11554105B2, “Combinations of artemisinins, BCL-2 inhibitors, and kinase inhibitors for cancer treatment” (UNIVERSITY OF MARYLAND, BALTIMORE, priority 2018, dated 2023)
Entries after “also recorded” stand apart in the source; their conditions may differ. Like-named read-outs stand apart in the source and are kept apart here. Marks after values point to notes of the source that are not given here.

Experiments:
[1] = system: mitochondrial superoxide in MOLM14 cells; experiment: Mitochondrial superoxide (MitoSOX Red, flow cytometry); type: cell-based, human; settings: 16 h, 2.25× approximate 48 h IC50, MitoSox MFI
Method: FIGS. 4A-4D. Effects of ART-838- and AS-containing drug combinations on MOLM14 growth and superoxide generation. […] CIs were computed as described above. CI<1 indicates synergy, CI=1, additivity, CI>1, antagonism. […] Cells were then loaded with 5 μM MitoSox for 30 min, washed, and analyzed by flow cytometry for MitoSox fluorescence (indicating mitochondrial superoxide) in the FL2 channel. Mean fluorescence intensity (MFI) was normalized to that of vehicle control (0.5% DMSO) with no pretreatment (100%, lower dotted lines). Upper dotted lines show MFI of ART-838- or AS-treated cells. Error bars represent the SEM of three independent experiments.
Cells were pretreated with NAC, Tiron, DFO, or vehicle then treated with AS, ART-838, or vehicle, as described above, then following a 16-hour drug treatment, cells were loaded with 5 μM MitoSOX Red (Invitrogen, Carlsbad, Calif.) for 30 minutes at 37° C. with 5% CO2, then analyzed using the FL2 channel of an Accuri C6 flow cytometer.
As both ART-838 and AS increased mitochondrial superoxide, and many antineoplastic drugs induce ROS generation, mitochondrial superoxide levels of MOLM14 cells treated with each of the above six antileukemic drugs were evaluated, alone and in combination with ART-838 or AS. All six drugs induced mitochondrial superoxide, although to a much lesser extent than did ART-838 (FIG. 4B) or AS (FIG. 4D).

[2] = cited from earlier work
[3] = PO qd×5 at MTD; 15 mg/kg ART631, 50 mg/kg ART838
Method: (§1) FIG. 24. Concentration-time profile for 2C-ARTs with PK parameters.
Preliminary pharmacokinetic (PK) studies were designed to compare the PK of ART631 at steady-state at its maximum tolerated dose (MTD) (FIG. 24). […] ART631 plasma concentrations exceeded 50 nM for ˜8 h.

human AML cell lines = experiment: In vitro efficacies of artemisinin derivatives against human AML cell lines; type: cell-based
Method: Cell lines were seeded in 96-well tissue culture plates at 10^4 cells per well (myeloid leukemia lines) or 2×10^4 cells per well (lymphoid leukemia lines) in culture medium, followed by addition of drugs at the indicated concentrations. 2-4 wells per plate containing media-only were included for background subtraction. Peripheral wells were filled with sterile water to minimize the effects of evaporation.
A novel trioxane dimer allyloxime-631 (ART631) has been designed to further extend in vivo T1/2 without sacrificing antimalarial activity.

[4] = system: MV4:11 or MOLM14 AML xenografts; experiment: Luc-labelled AML xenografts treated with VEN, SOR and ART838 or ART631 (5-cycle MTD regimen); type: in vivo, NRG mice; settings: two AML xenograft models; single agents and in combination with VEN+SOR
Text: FIG. 25A-25C. […] FIG. 25A) MTD cyclic drug treatment schema.
Outcome metrics included 1) maximal in vivo antileukemic efficacy 3 days (d) after completion of the 1st treatment cycle (FIG. 25B); 2) survival (FIG. 25C); and 3) toxicity.

[5] = system: human leukemia cell lines; settings: more potent than AS; cited from earlier work
in vivo = experiment: in vivo
Text: as §1
FIG. 25A-25C. […] NOD-Rag1^nullIL2rg^null (NRG) mice were transplanted IV with Luc-labelled MV4; 11 cells on d10. […] FIG. 25A) MTD cyclic drug treatment schema.

RCH-ACV = experiment: Kinase inhibitor drug combination screen (MTS, Bliss-independence analysis); settings: Drug 1 combined with AS (Drug 2) at its approximate IC50, 48 h, average over seven Drug 1 concentrations
KOPN8 = experiment: as above; type: cell-based, human; settings: Drug 1 combined with ART-838 (Drug 2) at its approximate IC50, 48 h, average over seven Drug 1 concentrations
[6] = system: MOLM14, KOPN8 and RCH-ACV cell lines; experiment: Kinase inhibitor drug combination screen, summary over the three cell lines; settings: >10% growth inhibition over the Bliss prediction; of three cell lines
Method: Plates (3×384-well per set) contained 7 graded concentrations of each drug at 2× final concentration in culture media in 25 μl/well. […] Cells were plated such that each well contained 2500 cells (MOLM14) or 5000 cells (KOPN8 and RCH-ACV). […] Each plate contained two positive control wells used for background subtraction. Each plate also contained 45 wells without any drug. The background-subtracted absorbance for each well was normalized to the average of the no-drug wells from the corresponding vehicle plate.
Hits were ranked by the observed inhibition over the Bliss independence prediction.
Combinations with positive values for this Bliss difference were considered synergistic, values near zero, additive, and negative values, antagonistic.

Compound | mitochondrial superoxide generation, drug alone [1] | in vivo T1/2 [2] | exposure, oral ART631 compared with ART838 [3] | IC50 (human AML cell lines; median over the human AML cell lines tested (11 for AS and ART838, 4 for ART631), read-out: IC50 median) | IC50 (human AML cell lines; range over the human AML cell lines tested (11 for AS and ART838, 4 for ART631), read-out: IC50 range) | tolerability and antileukemic efficacy, ART631 compared with ART838 [4] | in vitro potency relative to AS [5] | previously established MTD, PO×5 d schedule (in vivo; 5 d-on/9 d-off, gavage) | MTD regimen, repeated dose (in vivo; qd×5 PO) | fractional inhibition over Bliss prediction (RCH-ACV) | fractional inhibition over Bliss prediction (KOPN8) | No. Cell Lines synergistically inhibited by drug 1 combined with AS and/or ART-838 [6]
C[C@@H]1CCC2[C@@H](C)[C@@H](CC(COP(=O)(Oc3ccccc3)Oc3ccccc3)C[C@H]3O[C@@H]4O[C@@]5(C)CCC6[C@H](C)CCC([C@H]3C)[C@]64OO5)O[C@@H]3O[C@@]4(C)CCC1[C@@]23OO4 (stereo partly drawn) [ART-838, artemisinin-derived trioxane diphenylphosphate dimer 838] | induced superoxide to greater levels than AS; also recorded: induced mitochondrial superoxide generation | 3 h | similar | 38 nM | 10 to 547 nM | closely similar tolerability and antileukemic efficacy | 88 fold | 50 mg/kg/day | 50 mg/kg | – | – | –
COc1cc(Oc2ccnc3cc(OC)c(OC)cc23)ccc1NC(=O)NC(C)c1nccs1 (stereo not drawn) [KI20227] | – | – | – | – | – | – | – | – | – | RCH-ACV (0.14) | KOPN8 (0.12) | 2/3**
